Assay results as given in publication PMC4076210, “Discovery of Novel AKT Inhibitors with Enhanced Anti-Tumor Effects in Combination with the MEK Inhibitor” (PLoS ONE, 2014).
Read-outs that look alike come from different tables or passages of the source.

What was measured:
Experiment in all cases: Kinase panel
MSK1(h) = target: T1, MSK1(h) (Homo sapiens, UniProt O75582); type: biochemical
T1 construct: purchased Millipore KinaseProfiler

TAK1(h) = target: T2, TAK1(h) (Homo sapiens, UniProt O43318); type: biochemical
T2 construct: purchased Millipore KinaseProfiler
T2 sequence (O43318 1-303 limits assumed): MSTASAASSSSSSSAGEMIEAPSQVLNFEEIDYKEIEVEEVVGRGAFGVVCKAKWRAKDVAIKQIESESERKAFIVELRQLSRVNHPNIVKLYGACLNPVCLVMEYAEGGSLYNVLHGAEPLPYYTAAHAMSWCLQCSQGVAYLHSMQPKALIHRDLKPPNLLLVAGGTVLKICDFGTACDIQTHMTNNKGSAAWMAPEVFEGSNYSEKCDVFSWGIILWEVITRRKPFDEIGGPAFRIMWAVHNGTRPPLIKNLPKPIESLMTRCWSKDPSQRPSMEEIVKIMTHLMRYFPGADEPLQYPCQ

SGK3(h) = target: T3, SGK3(h) (Homo sapiens, UniProt Q96BR1)
T3 sequence (Q96BR1 1-496): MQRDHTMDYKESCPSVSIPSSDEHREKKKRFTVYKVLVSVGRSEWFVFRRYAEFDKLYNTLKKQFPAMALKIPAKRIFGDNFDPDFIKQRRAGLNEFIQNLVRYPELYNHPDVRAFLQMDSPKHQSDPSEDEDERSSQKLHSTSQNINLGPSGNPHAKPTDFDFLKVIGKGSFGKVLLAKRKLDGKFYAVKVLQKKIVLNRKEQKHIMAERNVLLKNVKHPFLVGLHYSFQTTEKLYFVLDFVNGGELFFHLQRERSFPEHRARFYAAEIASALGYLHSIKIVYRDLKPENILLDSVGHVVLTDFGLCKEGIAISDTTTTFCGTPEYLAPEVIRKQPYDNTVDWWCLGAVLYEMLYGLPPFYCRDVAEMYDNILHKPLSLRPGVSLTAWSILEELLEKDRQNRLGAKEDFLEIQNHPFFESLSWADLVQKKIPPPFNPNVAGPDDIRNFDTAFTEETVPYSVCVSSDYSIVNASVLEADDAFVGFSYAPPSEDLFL

MuSK(h) = target: T4, MuSK(h) (Homo sapiens, UniProt O15146); type: biochemical
T4 construct: purchased Millipore KinaseProfiler
T4 sequence (O15146 24-869): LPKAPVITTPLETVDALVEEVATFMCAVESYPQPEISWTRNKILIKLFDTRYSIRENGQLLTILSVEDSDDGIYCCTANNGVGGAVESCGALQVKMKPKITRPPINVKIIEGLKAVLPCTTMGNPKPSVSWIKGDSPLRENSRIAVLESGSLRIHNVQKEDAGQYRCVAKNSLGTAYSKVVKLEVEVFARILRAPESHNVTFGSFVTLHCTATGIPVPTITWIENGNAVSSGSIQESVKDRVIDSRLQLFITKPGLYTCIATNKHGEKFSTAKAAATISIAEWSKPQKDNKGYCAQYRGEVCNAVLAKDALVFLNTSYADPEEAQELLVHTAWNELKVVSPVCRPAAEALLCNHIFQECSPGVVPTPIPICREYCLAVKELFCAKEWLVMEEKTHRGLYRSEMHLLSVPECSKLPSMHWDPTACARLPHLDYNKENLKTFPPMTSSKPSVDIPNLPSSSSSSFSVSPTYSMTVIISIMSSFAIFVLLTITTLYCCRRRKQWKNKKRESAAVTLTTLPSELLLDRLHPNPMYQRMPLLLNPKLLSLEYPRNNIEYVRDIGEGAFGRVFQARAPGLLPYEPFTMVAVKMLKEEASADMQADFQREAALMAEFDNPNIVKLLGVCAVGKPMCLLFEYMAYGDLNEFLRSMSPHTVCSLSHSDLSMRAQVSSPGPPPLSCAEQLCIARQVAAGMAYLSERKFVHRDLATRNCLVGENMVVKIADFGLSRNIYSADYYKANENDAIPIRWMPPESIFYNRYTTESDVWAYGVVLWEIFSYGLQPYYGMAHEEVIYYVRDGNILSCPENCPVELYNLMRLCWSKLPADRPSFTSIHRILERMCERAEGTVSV

NEK11(h) = target: T5, NEK11(h) (Homo sapiens, UniProt Q8NG66); type: biochemical
T5 construct: purchased Millipore KinaseProfiler
T5 sequence (Q8NG66 1-645): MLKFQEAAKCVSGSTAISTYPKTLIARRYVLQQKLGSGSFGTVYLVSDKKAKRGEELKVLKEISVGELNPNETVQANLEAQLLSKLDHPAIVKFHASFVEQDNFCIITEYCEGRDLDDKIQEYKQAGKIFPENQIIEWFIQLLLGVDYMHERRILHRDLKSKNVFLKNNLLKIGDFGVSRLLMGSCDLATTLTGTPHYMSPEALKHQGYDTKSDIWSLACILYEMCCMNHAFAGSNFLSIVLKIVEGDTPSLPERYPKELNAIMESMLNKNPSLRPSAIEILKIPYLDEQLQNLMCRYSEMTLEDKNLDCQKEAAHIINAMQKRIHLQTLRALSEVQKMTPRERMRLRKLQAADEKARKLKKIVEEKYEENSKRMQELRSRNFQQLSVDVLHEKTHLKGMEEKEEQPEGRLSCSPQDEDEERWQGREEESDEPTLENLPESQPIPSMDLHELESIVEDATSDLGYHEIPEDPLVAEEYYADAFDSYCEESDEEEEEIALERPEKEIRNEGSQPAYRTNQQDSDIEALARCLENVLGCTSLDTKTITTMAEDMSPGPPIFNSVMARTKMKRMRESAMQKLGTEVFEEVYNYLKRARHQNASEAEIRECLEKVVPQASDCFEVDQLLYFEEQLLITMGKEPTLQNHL

TSSK1(h) = target: T6, TSSK1(h) (Homo sapiens, UniProt Q9BXA7); type: biochemical
T6 construct: purchased Millipore KinaseProfiler
T6 sequence (Q9BXA7 1-367): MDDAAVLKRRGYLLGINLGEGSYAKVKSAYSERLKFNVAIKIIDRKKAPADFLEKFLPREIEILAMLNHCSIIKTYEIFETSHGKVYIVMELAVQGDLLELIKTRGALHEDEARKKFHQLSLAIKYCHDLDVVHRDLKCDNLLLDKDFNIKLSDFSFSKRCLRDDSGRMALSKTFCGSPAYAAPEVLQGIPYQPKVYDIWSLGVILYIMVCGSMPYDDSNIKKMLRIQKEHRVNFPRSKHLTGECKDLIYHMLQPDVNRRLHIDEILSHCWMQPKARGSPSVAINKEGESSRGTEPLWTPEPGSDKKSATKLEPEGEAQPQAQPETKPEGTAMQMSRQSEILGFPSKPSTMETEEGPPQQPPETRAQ

Plk1(h) = target: T7, Plk1(h) (Homo sapiens, UniProt P53350); type: biochemical
T7 construct: purchased Millipore KinaseProfiler
T7 sequence (P53350 whole entry): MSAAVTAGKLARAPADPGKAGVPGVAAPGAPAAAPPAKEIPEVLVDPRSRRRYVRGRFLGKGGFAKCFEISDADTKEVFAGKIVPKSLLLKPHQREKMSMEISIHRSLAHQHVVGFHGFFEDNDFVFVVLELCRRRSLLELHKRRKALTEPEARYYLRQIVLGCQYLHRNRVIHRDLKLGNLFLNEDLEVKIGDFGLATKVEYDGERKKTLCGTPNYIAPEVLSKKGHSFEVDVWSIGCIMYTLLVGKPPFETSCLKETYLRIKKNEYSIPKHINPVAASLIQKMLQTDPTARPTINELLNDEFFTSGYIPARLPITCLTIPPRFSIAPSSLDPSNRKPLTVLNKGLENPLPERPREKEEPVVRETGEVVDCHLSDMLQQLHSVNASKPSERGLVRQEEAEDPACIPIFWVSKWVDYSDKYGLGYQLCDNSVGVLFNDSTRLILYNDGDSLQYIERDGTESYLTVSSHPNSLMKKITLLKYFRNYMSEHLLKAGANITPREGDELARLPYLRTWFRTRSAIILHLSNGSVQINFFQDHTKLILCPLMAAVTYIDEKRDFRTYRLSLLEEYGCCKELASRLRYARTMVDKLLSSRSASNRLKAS

T1 sequence (O75582 whole entry): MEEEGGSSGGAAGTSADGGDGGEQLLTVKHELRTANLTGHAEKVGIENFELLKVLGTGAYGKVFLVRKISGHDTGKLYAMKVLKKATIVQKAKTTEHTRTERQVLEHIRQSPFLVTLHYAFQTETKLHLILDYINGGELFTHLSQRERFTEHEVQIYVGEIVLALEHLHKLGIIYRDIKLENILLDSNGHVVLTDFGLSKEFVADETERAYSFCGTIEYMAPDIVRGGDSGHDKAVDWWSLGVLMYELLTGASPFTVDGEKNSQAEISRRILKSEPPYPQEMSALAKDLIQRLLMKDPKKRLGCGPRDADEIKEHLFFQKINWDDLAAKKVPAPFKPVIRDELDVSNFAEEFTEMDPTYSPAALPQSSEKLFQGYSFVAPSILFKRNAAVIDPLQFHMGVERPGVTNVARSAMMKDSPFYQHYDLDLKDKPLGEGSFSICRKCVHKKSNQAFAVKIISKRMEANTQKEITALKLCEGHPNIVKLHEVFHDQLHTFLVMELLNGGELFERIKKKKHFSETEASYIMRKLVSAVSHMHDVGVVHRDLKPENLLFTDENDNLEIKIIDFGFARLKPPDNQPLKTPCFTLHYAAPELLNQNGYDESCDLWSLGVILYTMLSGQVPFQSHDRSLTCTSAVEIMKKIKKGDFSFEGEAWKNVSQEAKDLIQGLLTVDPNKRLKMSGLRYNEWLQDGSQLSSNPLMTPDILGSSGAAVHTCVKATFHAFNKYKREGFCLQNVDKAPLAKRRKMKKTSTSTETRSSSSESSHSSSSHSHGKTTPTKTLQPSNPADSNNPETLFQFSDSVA

Cn1ncc(Cl)c1-c1cc(C(=O)N[C@H](CN)Cc2ccc(F)c(F)c2)oc1Cl [GSK2141795]
inhibition at 0.5 µM (MSK1(h); 0.5 µM, read-out: % Inhibition): 90% | inhibition at 10 µM (MSK1(h); 10 µM, read-out: % Inhibition): 95% | inhibition at 0.5 µM (TAK1(h); 0.5 µM, read-out: % Inhibition): -10% | inhibition at 10 µM (TAK1(h); 10 µM, read-out: % Inhibition): -10% | inhibition at 0.5 µM (SGK3(h)): 18% | inhibition at 10 µM (SGK3(h)): 84% | inhibition at 0.5 µM (MuSK(h); 0.5 µM, read-out: % Inhibition): -11% | inhibition at 10 µM (MuSK(h); 10 µM, read-out: % Inhibition): -2% | inhibition at 0.5 µM (NEK11(h); 0.5 µM, read-out: % Inhibition): -11% | inhibition at 10 µM (NEK11(h); 10 µM, read-out: % Inhibition): -2% | inhibition at 0.5 µM (TSSK1(h); 0.5 µM, read-out: % Inhibition): 21% | inhibition at 10 µM (TSSK1(h); 10 µM, read-out: % Inhibition): 83% | inhibition at 0.5 µM (Plk1(h); 0.5 µM, read-out: % Inhibition): -34% | inhibition at 10 µM (Plk1(h); 10 µM, read-out: % Inhibition): 8%

Cn1ncc(Cl)c1-c1cc(C(=O)N[C@H](CN)Cc2cccc(F)c2)sc1Cl [GSK2110183]
inhibition at 0.5 µM (MSK1(h)): 85% | inhibition at 10 µM (MSK1(h)): 98% | inhibition at 0.5 µM (TAK1(h)): -3% | inhibition at 10 µM (TAK1(h)): 1% | inhibition at 0.5 µM (SGK3(h)): 7% | inhibition at 10 µM (SGK3(h)): 76% | inhibition at 0.5 µM (MuSK(h)): -25% | inhibition at 10 µM (MuSK(h)): -20% | inhibition at 0.5 µM (NEK11(h)): -13% | inhibition at 10 µM (NEK11(h)): -11% | inhibition at 0.5 µM (TSSK1(h)): 16% | inhibition at 10 µM (TSSK1(h)): 84% | inhibition at 0.5 µM (Plk1(h)): -21% | inhibition at 10 µM (Plk1(h)): -6%
